Results taken from US20060069132A1, “Azolecarboxamide herbicides” (priority 2004, published 2006).
Where two headings read alike, the source gives them in different places.

Columns and labels:
barnyardgrass = experiment: Test A pre-/postemergence herbicide test; format: in vivo, Echinochloa crus-galli; conditions: Echinochloa crus-galli, 240 h; for pest or weed control at 500 g/ha: 500 g ai/ha; for pest or weed control at 2000 g/ha: 2000 g ai/ha
Procedure, shortened: (§1)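 Plants are held in greenhouse about ten days after treatment, then compared with untreated controls and scored 0 (no effect) to 100 (complete control). Preemergence dosing is a directed soil spray on sown sandy loam; postemergence dosing is spray to runoff at 2–10 cm height.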

large crabgrass = experiment: Test A pre-/postemergence herbicide test; format: in vivo, Digitaria sanguinalis; conditions: Digitaria sanguinalis, 240 h; for pest or weed control at 500 g/ha: 500 g ai/ha; for pest or weed control at 2000 g/ha: 2000 g ai/ha
Procedure, shortened: as §1

giant foxtail [1] = experiment: Test A pre-/postemergence herbicide test; format: in vivo, Setaria faberi; conditions: Setaria faberi, 240 h; for pest or weed control at 500 g/ha: 500 g ai/ha; for pest or weed control at 2000 g/ha: 2000 g ai/ha
Procedure, shortened: as §1

corn = experiment: Test C pre-/postemergence herbicide test; format: in vivo, Zea mays; conditions: for Corn plant response rating (crop injury, 0 = no effect, 100 = complete kill) at 250 g/ha: 250 g ai/ha; for Corn plant response rating (crop injury, 0 = no effect, 100 = complete kill) at 125 g/ha: 125 g ai/ha
Procedure, shortened: (§2)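 Greenhouse-grown plants were evaluated visually 12 to 14 days after treatment, with 100 meaning complete control and 0 no effect. Application was preemergence, or postemergence at 2 to 18 cm.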

giant foxtail [2] = experiment: Test C pre-/postemergence herbicide test; format: in vivo, Setaria faberi; conditions: for pest or weed control at 250 g/ha: 250 g ai/ha; for pest or weed control at 125 g/ha: 125 g ai/ha
Procedure, shortened: as §2

johnsongrass = experiment: Test C pre-/postemergence herbicide test; format: in vivo, Sorghum halepense; conditions: for pest or weed control at 125 g/ha: 125 g ai/ha
Procedure, shortened: as §2

kochia = experiment: Test C pre-/postemergence herbicide test; format: in vivo, Kochia scoparia; conditions: for pest or weed control at 125 g/ha: 125 g ai/ha
Procedure, shortened: as §2

common ragweed = experiment: Test C pre-/postemergence herbicide test; format: in vivo, Ambrosia elatior; conditions: for pest or weed control at 125 g/ha: 125 g ai/ha
Procedure, shortened: as §2

rice = experiment: Test C flooded paddy test; format: in vivo, Oryza sativa; conditions: Oryza sativa
Procedure, shortened: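 Plants were grown to the 1- to 4-leaf stage (2–18 cm) and then treated postemergence, or grown to the 2-leaf stage for the flooded paddy test. They were held in a greenhouse for 12 to 14 days and then scored by eye against controls, where 0 is no effect and 100 is complete control.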

[3] = tested on: smallflower umbrella sedge; experiment: Test C flooded paddy test; format: in vivo, Cyperus difformis; conditions: Cyperus difformis
[4] = post-emergence, Postemergence, 0 to 100 scale, 0 no effect, 100 complete control, read-out: Plant response rating, Barnyardgrass
[5] = post-emergence, Postemergence, 0 to 100 scale, 0 no effect, 100 complete control, read-out: Plant response rating, Crabgrass, Large
[6] = post-emergence, Postemergence, 0 to 100 scale, 0 no effect, 100 complete control, read-out: Plant response rating, Foxtail, Giant

CCOC(=O)c1cccc(NC(=O)c2cc(C(C)(C)C)nn2CC)c1 [Compound 80, ethyl 3-[[[3-(1,1-dimethylethyl)-1-ethyl-1H-pyrazol-5-yl]carbonyl]-amino]benzoate]
pest or weed control at 500 g/ha (barnyardgrass; [4]): 90%
pest or weed control at 2000 g/ha (barnyardgrass; [4]): 90%
pest or weed control at 500 g/ha (barnyardgrass; pre-emergence, Preemergence, visual rating, 0 to 100 scale (0 no effect, 100 complete control), read-out: Barnyardgrass plant response rating): 10%
pest or weed control at 2000 g/ha (barnyardgrass; pre-emergence, Preemergence, 0 to 100 scale, 0 no effect, 100 complete control, read-out: Barnyardgrass plant response rating): 35%
pest or weed control at 500 g/ha (large crabgrass; [5]): 70%
pest or weed control at 2000 g/ha (large crabgrass; [5]): 90%
pest or weed control at 500 g/ha (large crabgrass; pre-emergence, Preemergence, visual rating, 0 to 100 scale (0 no effect, 100 complete control), read-out: Crabgrass, Large plant response rating): 10%
pest or weed control at 2000 g/ha (large crabgrass; pre-emergence, Preemergence, 0 to 100 scale, 0 no effect, 100 complete control, read-out: Crabgrass, Large plant response rating): 30%
pest or weed control at 500 g/ha (giant foxtail [1]; [6]): 80%
pest or weed control at 2000 g/ha (giant foxtail [1]; [6]): 90%
pest or weed control at 500 g/ha (giant foxtail [1]; pre-emergence, Preemergence, visual rating, 0 to 100 scale (0 no effect, 100 complete control), read-out: Foxtail, Giant plant response rating): 20%
pest or weed control at 2000 g/ha (giant foxtail [1]; pre-emergence, Preemergence, 0 to 100 scale, 0 no effect, 100 complete control, read-out: Foxtail, Giant plant response rating): 70%
Plant response rating (0 = no effect, 100 = complete control), Corn (corn; 62 g ai/ha, preemergence): 0
Corn plant response rating (crop injury, 0 = no effect, 100 = complete kill) at 250 g/ha (corn; Zea mays, post-emergence, 312 h, Postemergence, scale 0 to 100, 0 no effect, 100 complete control): 70%
Corn plant response rating (crop injury, 0 = no effect, 100 = complete kill) at 125 g/ha (corn; Zea mays, post-emergence, 312 h, postemergence, scale 0 to 100): 70%
Corn plant response rating (crop injury, 0 = no effect, 100 = complete kill) at 62 g/ha (corn; Zea mays, post-emergence, 312 h, postemergence, 62 g ai/ha, scale 0 to 100): 70%
Corn plant response rating (crop injury, 0 = no effect, 100 = complete kill) at 31 g/ha (corn; Zea mays, pre-emergence, 312 h, 31 g ai/ha, preemergence, scale 0 to 100): 0%
Corn plant response rating (crop injury, 0 = no effect, 100 = complete kill) at 125 g/ha (corn; Zea mays, pre-emergence, 312 h, scale 0 (no effect) to 100 (complete control), visual, 12 to 14 days): 10%
Corn plant response rating (crop injury, 0 = no effect, 100 = complete kill) at 250 g/ha (corn; Zea mays, pre-emergence, 312 h, scale 0 to 100 (0 no effect, 100 complete control), visual, 12 to 14 days): 20%
Plant response rating (0 = no effect, 100 = complete control), Foxtail, Giant (giant foxtail [2]; 62 g ai/ha, preemergence): 10
pest or weed control at 250 g/ha (giant foxtail [2]; Setaria faberi, post-emergence, 312 h, Postemergence, scale 0 to 100, 0 no effect, 100 complete control, read-out: Plant response rating, Foxtail, Giant): 80%
pest or weed control at 125 g/ha (giant foxtail [2]; Setaria faberi, post-emergence, 312 h, postemergence, scale 0 to 100, read-out: Plant response rating, Foxtail, Giant): 80%
pest or weed control at 62 g/ha (giant foxtail [2]; Setaria faberi, post-emergence, 312 h, postemergence, 62 g ai/ha, scale 0 to 100, read-out: Plant response rating, Foxtail, Giant): 70%
pest or weed control at 31 g/ha (giant foxtail [2]; Setaria faberi, pre-emergence, 312 h, 31 g ai/ha, preemergence, scale 0 to 100, read-out: Plant response rating, Foxtail, Giant): 10%
pest or weed control at 125 g/ha (giant foxtail [2]; Setaria faberi, pre-emergence, 312 h, scale 0 (no effect) to 100 (complete control), visual, 12 to 14 days, read-out: Plant response rating, Foxtail, Giant): 40%
pest or weed control at 250 g/ha (giant foxtail [2]; Setaria faberi, pre-emergence, 312 h, scale 0 to 100 (0 no effect, 100 complete control), visual, 12 to 14 days, read-out: Plant response rating, Foxtail, Giant): 50%
Plant response rating (0 = no effect, 100 = complete control), Johnsongrass (johnsongrass; 62 g ai/ha, preemergence): 10
pest or weed control at 250 g/ha (johnsongrass; Sorghum halepense, post-emergence, Postemergence, 250 g ai/ha, scale 0 to 100, 0 no effect, 100 complete control, read-out: Plant response rating, Johnsongrass): 90%
pest or weed control at 125 g/ha (johnsongrass; Sorghum halepense, post-emergence, postemergence, scale 0 to 100, read-out: Plant response rating, Johnsongrass): 90%
pest or weed control at 62 g/ha (johnsongrass; Sorghum halepense, post-emergence, postemergence, 62 g ai/ha, scale 0 to 100, read-out: Plant response rating, Johnsongrass): 80%
pest or weed control at 31 g/ha (johnsongrass; Sorghum halepense, pre-emergence, 31 g ai/ha, preemergence, scale 0 to 100, read-out: Plant response rating, Johnsongrass): 0%
pest or weed control at 125 g/ha (johnsongrass; Sorghum halepense, pre-emergence, scale 0 (no effect) to 100 (complete control), visual, 12 to 14 days, read-out: Plant response rating, Johnsongrass): 10%
Plant response rating (0 = no effect, 100 = complete control), Kochia (kochia; 62 g ai/ha, preemergence): 10
pest or weed control at 250 g/ha (kochia; Bassia scoparia, post-emergence, Postemergence, 250 g ai/ha, scale 0 to 100, 0 no effect, 100 complete control, read-out: Plant response rating, Kochia): 100%
pest or weed control at 125 g/ha (kochia; Bassia scoparia, post-emergence, postemergence, scale 0 to 100, read-out: Plant response rating, Kochia): 100%
pest or weed control at 62 g/ha (kochia; Bassia scoparia, post-emergence, postemergence, 62 g ai/ha, scale 0 to 100, read-out: Plant response rating, Kochia): 100%
pest or weed control at 31 g/ha (kochia; Bassia scoparia, pre-emergence, 31 g ai/ha, preemergence, scale 0 to 100, read-out: Plant response rating, Kochia): 10%
pest or weed control at 125 g/ha (kochia; Bassia scoparia, pre-emergence, scale 0 (no effect) to 100 (complete control), visual, 12 to 14 days, read-out: Plant response rating, Kochia): 10%
Plant response rating (0 = no effect, 100 = complete control), Ragweed (common ragweed; 62 g ai/ha, preemergence): 0
pest or weed control at 250 g/ha (common ragweed; Ambrosia artemisiifolia, post-emergence, Postemergence, 250 g ai/ha, scale 0 to 100, 0 no effect, 100 complete control, read-out: Plant response rating, Ragweed): 70%
pest or weed control at 125 g/ha (common ragweed; Ambrosia artemisiifolia, post-emergence, postemergence, scale 0 to 100, read-out: Plant response rating, Ragweed): 70%
pest or weed control at 62 g/ha (common ragweed; Ambrosia artemisiifolia, post-emergence, postemergence, 62 g ai/ha, scale 0 to 100, read-out: Plant response rating, Ragweed): 70%
pest or weed control at 31 g/ha (common ragweed; Ambrosia artemisiifolia, pre-emergence, 31 g ai/ha, preemergence, scale 0 to 100, read-out: Plant response rating, Ragweed): 0%
pest or weed control at 125 g/ha (common ragweed; Ambrosia artemisiifolia, pre-emergence, scale 0 (no effect) to 100 (complete control), visual, 12 to 14 days, read-out: Plant response rating, Ragweed): 0%
plant injury at 62 g/ha (rice; 62 g ai/ha, scale 0 to 100 (0 no effect, 100 complete control), read-out: Rice plant response rating): 20%
plant injury at 125 g/ha (rice; 125 g ai/ha, scale of 0 to 100, 0 is no effect, 100 is complete control, read-out: Rice plant response rating): 40%
plant injury at 250 g/ha (rice; 250 g ai/ha, scale of 0 to 100, 0 is no effect, 100 is complete control, read-out: Rice plant response rating): 40%
plant injury at 500 g/ha (rice; 500 g ai/ha, visual rating after 12 to 14 days, scale 0 to 100 (0 no effect, 100 complete control), read-out: Plant response rating, Rice): 40%
pest or weed control at 62 g/ha ([3]; 62 g ai/ha, scale 0 to 100 (0 no effect, 100 complete control), read-out: Sedge, Umbrella plant response rating): 70%
pest or weed control at 125 g/ha ([3]; 125 g ai/ha, scale of 0 to 100, 0 is no effect, 100 is complete control, read-out: Sedge, Umbrella plant response rating): 70%
pest or weed control at 250 g/ha ([3]; 250 g ai/ha, scale of 0 to 100, 0 is no effect, 100 is complete control, read-out: Sedge, Umbrella plant response rating): 70%
pest or weed control at 500 g/ha ([3]; 500 g ai/ha, visual rating after 12 to 14 days, scale 0 to 100 (0 no effect, 100 complete control), read-out: Plant response rating, Sedge, Umbrella): 70%
